Experimental data from patent publication US8952024B2, “Herbicidal pyrimidone derivatives” (E I du Pont de Nemours and Company, priority 2009, dated 2015).

Assays:
Assay type in all cases: in vivo
[1] = tested on: wheat (Triticum aestivum); assay: Test A pre-/postemergence plant response
How it was run: (§1)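 Visual injury rating on a 0–100 scale (0 = no effect, 100 = complete control) was made versus untreated controls after about ten days in the greenhouse. Compounds, formulated in a non-phytotoxic solvent mix containing surfactant, were sprayed preemergence onto loam/sand soil and postemergence onto one- to two-leaf plants.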

[2] = tested on: morningglory (Ipomoea spp.); assay: Test A pre-/postemergence plant response
How it was run: as §1

corn (Zea mays) = assay: Test A pre-/postemergence plant response
How it was run: as §1

[3] = tested on: giant foxtail (Setaria faberii); assay: Test A pre-/postemergence plant response
How it was run: as §1

[4] = tested on: velvetleaf (Abutilon theophrasti); assay: Test A pre-/postemergence plant response
How it was run: as §1

[5] = tested on: large crabgrass (Digitaria sanguinalis); assay: Test A pre-/postemergence plant response
How it was run: as §1

[6] = tested on: barnyardgrass (Echinochloa crus-galli); assay: Test A pre-/postemergence plant response
How it was run: as §1

[7] = tested on: pigweed (Amaranthus retroflexus); assay: Test A pre-/postemergence plant response
How it was run: as §1

rice (Oryza sativa) = assay: Test B flooded paddy test; conditions: for Plant response rating, Rice: Flood (flooded paddy test), 13 to 15 days
How it was run: (§2)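 Greenhouse-held for 13 to 15 days, treated pots were compared visually with controls and scored 0–100 (0, no effect). Treatment had been made into paddy water kept at 3 cm above the soil, with plants at the 2-leaf stage.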

[8] = tested on: ducksalad (Heteranthera limosa); assay: Test B flooded paddy test; conditions: for Plant response rating, Ducksalad: Flood (flooded paddy test), 13 to 15 days
How it was run: as §2

[9] = tested on: barnyardgrass (Echinochloa crus-galli); assay: Test B flooded paddy test; conditions: for Plant response rating, Barnyardgrass: Flood (flooded paddy test), 13 to 15 days
How it was run: as §2

[10] = tested on: umbrella sedge (Cyperus difformis); assay: Test B flooded paddy test; conditions: for Plant response rating, Sedge, Umbrella: Flood (flooded paddy test), 13 to 15 days
How it was run: as §2

[11] = Postemergence, 125 g ai/ha, 0 to 100 scale where 0 is no effect and 100 is complete control
[12] = Postemergence, 500 g ai/ha, 0 to 100 scale, 0 = no effect, 100 = complete control, approx. ten days
[13] = Preemergence, 125 g ai/ha, 0 to 100 scale, 0 = no effect, 100 = complete control
[14] = Preemergence, 500 g ai/ha, visual injury, 0 to 100 scale (0 no effect, 100 complete control), approx. ten days
[15] = 250 g ai/ha, flooded paddy test, visual rating on 0 to 100 scale (0 no effect, 100 complete control) after 13 to 15 days
[16] = 62 g ai/ha, scale of 0 to 100 where 0 is no effect and 100 is complete control
[17] = 125 g ai/ha, scale 0 to 100, 0 is no effect, 100 is complete control
[18] = Flood, 31 g ai/ha, scale 0 to 100 (0 no effect, 100 complete control)

SMILES: CCCn1c(-c2ccccc2F)ncc(C(=O)C2=C(O)CCCC2=O)c1=O [Compound 101]
- Plant response rating, Wheat [1, 11]: 0
- Plant response rating, Wheat [1, 12]: 0
- Plant response rating, Wheat [1, 13]: 0
- Plant response rating, Wheat [1, 14]: 0
- Plant response rating, Morningglory [2, 11]: 60
- Plant response rating, Morningglory [2, 12]: 70
- Plant response rating, Morningglory [2, 13]: 80
- Plant response rating, Morningglory [2, 14]: 80
- Plant response rating, Corn (corn (Zea mays); [11]): 0
- Plant response rating, Corn (corn (Zea mays); [12]): 10
- Plant response rating, Corn (corn (Zea mays); [13]): 0
- Plant response rating, Corn (corn (Zea mays); [14]): 0
- Plant response rating, Foxtail, Giant [3, 11]: 60
- Plant response rating, Foxtail, Giant [3, 12]: 80
- Plant response rating, Foxtail, Giant [3, 13]: 30
- Plant response rating, Foxtail, Giant [3, 14]: 50
- Plant response rating, Velvetleaf [4, 11]: 100
- Plant response rating, Velvetleaf [4, 12]: 100
- Plant response rating, Velvetleaf [4, 13]: 80
- Plant response rating, Velvetleaf [4, 14]: 100
- Plant response rating, Crabgrass, Large [5, 11]: 90
- Plant response rating, Crabgrass, Large [5, 12]: 90
- Plant response rating, Crabgrass, Large [5, 13]: 70
- Plant response rating, Crabgrass, Large [5, 14]: 90
- Plant response rating, Barnyardgrass [6, 11]: 80
- Plant response rating, Barnyardgrass [6, 12]: 90
- Plant response rating, Barnyardgrass [6, 13]: 20
- Plant response rating, Barnyardgrass [6, 14]: 70
- Plant response rating, Pigweed [7, 11]: 90
- Plant response rating, Pigweed [7, 12]: 100
- Plant response rating, Pigweed [7, 13]: 70
- Plant response rating, Pigweed [7, 14]: 80
- Plant response rating, Flood, Rice (rice (Oryza sativa); [15]): 20
- Plant response rating, Rice (rice (Oryza sativa); [16]): 0
- Plant response rating, Rice (rice (Oryza sativa); [17]): 0
- Rice plant response rating (rice (Oryza sativa); [18]): 0
- Plant response rating, Flood, Ducksalad [8, 15]: 30
- Plant response rating, Ducksalad [8, 16]: 30
- Plant response rating, Ducksalad [8, 17]: 30
- Ducksalad plant response rating [8, 18]: 20
- Plant response rating, Flood, Barnyardgrass [9, 15]: 40
- Plant response rating, Barnyardgrass [9, 16]: 40
- Plant response rating, Barnyardgrass [9, 17]: 40
- Barnyardgrass plant response rating [9, 18]: 20
- Plant response rating, Flood, Sedge, Umbrella [10, 15]: 65
- Plant response rating, Sedge, Umbrella [10, 16]: 20
- Plant response rating, Sedge, Umbrella [10, 17]: 30
- Sedge, Umbrella plant response rating [10, 18]: 0
